# Reference: patent US12007399B2, “Method of identifying and treating premature infants at risk for BPD” (Mallinckrodt Pharmaceuticals Ireland Limited, priority 2014, dated 2024)
# Experiments:
# [1] = system: mice with eNOS deficiency; conditions: inhaled; cited from earlier work
# [2] = system: preterm infants less than 30 weeks gestational age requiring mechanical ventilation or positive pressure support; test: Multi-center, double blind, placebo-controlled randomized clinical trial of iNO for prevention of BPD; type: in vivo, human
# Source text: It has been discovered that certain biomarkers present in premature infants are predictive of the risk of developing BPD and/or the likelihood of a therapeutic response to iNO to prevent BPD. As used herein, the term “therapeutic response to iNO” means that iNO administration increases the rate of survival without bronchopulmonary dysplasia (BPD) at 36 weeks of post menstrual age compared to the rate of survival […] at 36 weeks of post menstrual age in an untreated premature infant population. As used herein, the term “premature infant”, “preterm infant” and the like means infants born at less than 30 weeks gestational age. The biomarkers identified are of three types: a) the concentration of metabolites of NO, such as nitrite and nitrate, in blood or plasma, b) the concentration of NO in exhaled air, and c) the presence or absence of a mutation in the eNOS gene that decreases endogenous NO production, or any combination thereof.
# A multi-center, double blind, placebo-controlled randomized clinical trial was conducted to examine the efficacy of iNO in preterm infants less than 30 weeks gestational age and less than 1250 grams who required mechanical ventilation or positive pressure support on days 5 to 14 after birth. […]
# [3] = system: premature infants between 7 and 21 days of age requiring ventilator support; conditions: decreasing concentrations from 20 ppm, minimum of 24 days; cited from earlier work
# [4] = LC/MS assay of total plasma nitrite and nitrate (NOx) in trial subjects; type: in vivo, human; conditions: per subject, nitric oxide treatment arm
# Description: Because of the challenge to measure free NO in systemic circulation, the PK assessment was done via plasma concentration data of NOx (nitrite and nitrate). In addition, methemoglobin (another metabolite of NO) was used as a secondary variable for PK evaluation. This evaluation was done to understand the relationship between pharmacokinetic behavior of iNO and clinical outcomes. The sampling protocol included pre-treatment time points (less than 2 hours before initiation of NO dosing), as well as a variety of time points during iNO therapy and after discontinuation of iNO therapy.
# A liquid chromatographic/mass […] (LC/MS) assay method was developed and qualified for measurement NOx in human plasma. The quantitation of NOx was performed using the ^15N-stable isotope labeled nitrate as an internal standard. Nitrate reductase and NADH was added to the samples for enzymatic reduction of nitrate to nitrite in plasma. Upon completion of the reduction reaction, acetone was added to precipitate plasma proteins. The alkylating reagent, pentafluorobenzyl bromide (PFBBr), was subsequently added to the samples to convert nitrite to a chemically stable pentafluorobenzyl derivative. After completion of derivatization, plasma supernatant was injected into the LC/MS for analysis. Plasma concentrations of total nitrite and nitrate were measured and reported as NOx using this assay method. […]
# [5] = in vivo; cited from earlier work
smiles,measurement,setting,value
"[N]=O [NITRIC OXIDE, nitric oxide]",Alveolar and vascular growth,[1],stimulated alveolar and vascular growth
same,Efficacy of iNO treatment,[2]; subjects having an average NOx concentration of about 20 or less,therapeutically effective
same,Efficacy of iNO treatment,[2]; subjects with NOx levels from 62.3 uM to 184 uM,not effective
same,Pulmonary outcome,[3],improves the pulmonary outcome
same,Short term adverse effects,[3],no apparent short term adverse effects
same,"Lab Test Result (plasma NOx, total nitrite and nitrate)",[4],<LLOQ
same,Time before steady-state methemoglobin levels are attained,[5],≥ 8 h
